Experimental data reported in patent US6486191B2 (priority 1997, dated 2002).
≈ marks a conversion by molar mass, not a printed value.

Key:
Aspergillus niger = experiment: Material protection test (MIC on malt extract agar); type: cell-based; conditions: 336 h, two weeks at 27° C., 60 to 70% relative humidity, read-out: Minimum inhibitory concentration (MIC value)
Chaetomium globosum = experiment: as above; type: cell-based; conditions: 336 h, two weeks at 27° C., 60 to 70% relative humidity, read-out: Minimum inhibitory concentration (MIC value)
Penicillium brevicaule = experiment: as above; type: cell-based; conditions: 336 h, two weeks at 27° C., 60 to 70% relative humidity, read-out: Minimum inhibitory concentration (MIC value)
[1] = tested on: larvae of the horseradish beetle (Phaedon cochleariae); experiment: Phaedon larvae test; type: in vivo; conditions: cabbage leaves immersed, active substance concentration 0.1 % by weight
Protocol: (§1) Solvent: 7 parts by weight of dimethylformamide
(§2) Emulsifier: 1 part by weight of alkylaryl polyglycol ether
For the preparation of an expedient fonnulation of active substance, 1 part by weight of active substance is mixed with the stated amounts of solvent and emulsifier, and the concentrate is diluted to the desired concentration with water.
Cabbage leaves (Brassica oleracea) are treated by immersion in the formulation of active substance of the desired concentration and infested with larvae of the horseradish beetle (Phaedon cochleariae) as long as the leaves are still moist.
After the desired time, the kill in % is determined. 100% means that all beetle larvae were killed; 0% means that no beetle larvae were killed.

[2] = tested on: caterpillars of the diamondback moth (Plutella xylostella); experiment: Plutella test; type: in vivo; conditions: cabbage leaves immersed, active substance concentration 0.1 % by weight
Protocol: as §1, §2
For the preparation of an expedient formulation of active substance, 1 part by weight of active substance is mixed with the stated amounts of solvent and emulsifier, and the concentrate is diluted to the desired concentration with water.
Cabbage leaves (Brassica oleracea) are treated by immersion in the formulation of active substance of the desired concentration and infested with caterpillars of the diamondback moth (Plutella xylostella) as long as the leaves are still moist.
After the desired time, the kill in % is determined. 100% means that all caterpillars were killed; 0% means that no caterpillars were killed.

Row | SMILES | MIC (Aspergillus niger) | MIC (Chaetomium globosum) | MIC (Penicillium brevicaule) | Kill in % after 7 d [1] | Kill in % after 7 d [2]
1 | Cc1ccc(S(=O)(=O)n2c(C#N)nc3cc4c(cc32)OC(F)(F)C(F)(F)O4)cc1[N+](=O)[O-] [Example 2] | 200 µg/mL (≈ 423 µM) | 100 µg/mL (≈ 212 µM) | 100 µg/mL (≈ 212 µM) |  | 
2 | Cc1ccc([N+](=O)[O-])cc1S(=O)(=O)n1c(C#N)nc2cc3c(cc21)OC(F)(F)C(F)(F)O3 [Example 5] | 200 µg/mL (≈ 423 µM) | 100 µg/mL (≈ 212 µM) | 100 µg/mL (≈ 212 µM) |  | 
3 | Cc1ccc(S(=O)(=O)n2c(C#N)nc3cc4c(cc32)OC(F)(F)C(F)(F)O4)cc1[N+](=O)[O-] [drawing 67] |  |  |  | 100% | 
4 | Cc1ccc([N+](=O)[O-])cc1S(=O)(=O)n1c(C#N)nc2cc3c(cc21)OC(F)(F)C(F)(F)O3 [drawing 68] |  |  |  | 100% | 
5 | Cc1ccc(S(=O)(=O)n2c(C#N)nc3cc4c(cc32)OC(F)(F)C(F)(F)O4)cc1[N+](=O)[O-] [drawing 69] |  |  |  |  | 100%
6 | Cc1ccc([N+](=O)[O-])cc1S(=O)(=O)n1c(C#N)nc2cc3c(cc21)OC(F)(F)C(F)(F)O3 [drawing 70] |  |  |  |  | 100%
